Measurements published in patent publication US10189842B2 (Agency for Science, Technology and Research, priority 2013, dated 2019).

Each compound was assayed on HEK293-STF3A cells (assay: STF3A assay (luciferase reporter)). Conditions: 1 day of treatment.
Assay type: cell-based, Human
In short: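 HEK293 cells carrying the STF reporter and expressing Wnt3A, seeded 2×10^4 per well overnight, then treated 1 day with compound at final 50 μM to 1.5 nM. Luciferase activity read by luminescence after Steady-Glo reagent, 10 min at room temperature.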

Compound	IC50 [nM]
4-(2-methyl-6,7-dihydropyrazolo[1,5-a]pyrimidin-4(5H)-yl)-N-(4-(2-methylthiazol-4-yl)phenyl)-4-oxobutanamide [Compound 32]	< 100

Same assay, conditions: Homo sapiens, 24 h, 1 day of treatment

Compound	IC50 [nM]
Cc1cncc(-c2ccc(NC(=O)CCC(=O)N3CCCn4nc(C)cc43)cn2)c1 [Compound 110, N-(5′-methyl-2,3′-bipyridin-5-yl)-4-(2-methyl-6,7-dihydropyrazolo[1,5-a]pyrimidin-4(5H)-yl)-4-oxobutanamide]	< 100
Cc1cc2n(n1)CCCN2C(=O)CCC(=O)Nc1ccc(-c2ccccc2F)cc1 [Compound 64, N-(2′-fluoro-[1,1′-biphenyl]-4-yl)-4-(2-methyl-6,7-dihydropyrazolo[1,5-a]pyrimidin-4(5H)-yl)-4-oxobutanamide]	< 100
Cc1cc2n(n1)CCCN2C(=O)CC(C)C(=O)Nc1ccc(-c2ccccc2)nn1 (stereo not shown) [Compound 146, 2-methyl-4-(2-methyl-6,7-dihydropyrazolo[1,5-a]pyrimidin-4(5H)-yl)-4-oxo-N-(6-phenylpyridazin-3-yl)butanamide]	< 100
Cc1cc2n(n1)CCCN2C(=O)CCC(=O)Nc1oncc1-c1ccccc1 [Compound 4, 4-(2-methyl-6,7-dihydropyrazolo[1,5-a]pyrimidin-4(5H)-yl)-4-oxo-N-(4-phenylisoxazol-5-yl)butanamide]	> 10000
Cc1cc2n(n1)CCCN2C(=O)CCC(=O)Nc1ccc(-c2cncc(F)c2)nn1 [Compound 103, N-(6-(5-fluoropyridin-3-yl)pyridazin-3-yl)-4-(2-methyl-6,7-dihydropyrazolo[1,5-a]pyrimidin-4(5H)-yl)-4-oxobutanamide]	< 100
Cc1cc2n(n1)CCCN2C(=O)CCC(=O)Nc1ccc(-c2cncnc2)cc1 [Compound 39, 4-{2-methyl-5H,6H,7H-pyrazolo[1,5-a]pyrimidin-4-yl}-4-oxo-N-[4-(pyrimidin-5-yl)phenyl]butanamide]	< 100
Cc1cc2n(n1)CC(C)CN2C(=O)CCC(=O)Nc1ccc(-c2cccnc2)nn1 (stereo not shown) [Compound 141, 4-(2,6-dimethyl-6,7-dihydropyrazolo[1,5-a]pyrimidin-4(5H)-yl)-4-oxo-N-(6-(pyridin-3-yl)pyridazin-3-yl)butanamide]	< 100
Cc1cc2n(n1)CCCN2C(=O)CCC(=O)Nc1ccc(-c2ccc(F)cn2)cn1 [Compound 94, N-(5-fluoro-2,3′-bipyridin-6′-yl)-4-(2-methyl-6,7-dihydropyrazolo[1,5-a]pyrimidin-4(5H)-yl)-4-oxobutanamide]	< 100
Cc1cc2n(n1)CCCN2C(=O)CCC(=O)Nc1ccc(-c2ccccn2)cn1 [Compound 41, N-([2,3′-bipyridin]-6′-yl)-4-(2-methyl-6,7-dihydropyrazolo[1,5-a]pyrimidin-4(5H)-yl)-4-oxobutanamide]	< 100
Cc1cc2n(n1)CCCN2C(=O)CCC(=O)Nc1ccc(-c2ccc(Cl)cc2)nn1 [Compound 100, N-[6-(4-chlorophenyl)pyridazin-3-yl]-4-{2-methyl-5H,6H,7H-pyrazolo[1,5-a]pyrimidin-4-yl}-4-oxobutanamide]	< 100
Cc1cncc(-c2ncc(NC(=O)CCC(=O)N3CCCn4nc(C)cc43)cc2F)c1 [Compound 158, N-(3-fluoro-5′-methyl-[2,3′-bipyridin]-5-yl)-4-(2-methyl-6,7-dihydropyrazolo[1,5-a]pyrimidin-4(5H)-yl)-4-oxobutanamide]	< 100
Cc1cc2n(n1)CCCN2C(=O)CCC(=O)Nc1ccc(-c2ccccc2)c(C)c1 [Compound 54, 4-(2-methyl-6,7-dihydropyrazolo[1,5-a]pyrimidin-4(5H)-yl)-N-(2-methyl-[1,1′-biphenyl]-4-yl)-4-oxobutanamide]	< 100
Cc1cc2n(n1)CCCN2C(=O)CCC(=O)Nc1cc(-c2ccc(N)cc2)no1 [Compound 15, N-[3-(4-aminophenyl)-1,2-oxazol-5-yl]-4-{2-methyl-5H,6H,7H-pyrazolo[1,5-a]pyrimidin-4-yl}-4-oxobutanamide]	> 10000
Cc1cncc(-c2ccc(NC(=O)C(C)CC(=O)N3CCCn4nc(C)cc43)nc2)c1 (stereo not shown) [Compound 152, 2-methyl-4-(2-methyl-6,7-dihydropyrazolo[1,5-a]pyrimidin-4(5H)-yl)-N-(5′-methyl-[3,3′-bipyridin]-6-yl)-4-oxobutanamide]	< 100
Cc1cc2n(n1)CCCN2C(=O)CCC(=O)Nc1ccc(-c2ccccc2)cn1 [Compound 44, 4-(2-methyl-6,7-dihydropyrazolo[1,5-a]pyrimidin-4(5H)-yl)-4-oxo-N-(5-phenylpyridin-2-yl)butanamide]	< 100
Cc1cc2n(n1)CCCN2C(=O)CCC(=O)Nc1cc(C)c(-c2ccccc2)cn1 [Compound 92, N-(4-methyl-5-phenylpyridin-2-yl)-4-(2-methyl-6,7-dihydropyrazolo[1,5-a]pyrimidin-4(5H)-yl)-4-oxobutanamide]	< 1000
Cc1cc2n(n1)CCCN2C(=O)CCC(=O)Nc1cnc(-c2ccccc2)c(C)c1 [Compound 86, 4-(2-methyl-6,7-dihydropyrazolo[1,5-a]pyrimidin-4(5H)-yl)-N-(5-methyl-6-phenylpyridin-3-yl)-4-oxobutanamide]	< 5000
Cc1cc2n(n1)CCCN2C(=O)CCC(=O)Nc1ccc(-n2ccnc2)cc1 [Compound 27, N-(4-(1H-imidazol-1-yl)phenyl)-4-(2-methyl-6,7-dihydropyrazolo[1,5-a]pyrimidin-4(5H)-yl)-4-oxobutanamide]	< 1000
Cc1cc2n(n1)CCCN2C(=O)CCC(=O)Nc1ccc(-c2nccs2)cc1 [Compound 25]	< 100
Cc1cc2n(n1)CCCN2C(=O)CCC(=O)Nc1ccc(-c2cccnc2)cc1 [Compound 35, 4-(2-methyl-6,7-dihydropyrazolo[1,5-a]pyrimidin-4(5H)-yl)-4-oxo-N-(4-(pyridin-3-yl)phenyl)butanamide]	< 100
Cc1cc2n(n1)CCCN2C(=O)CCC(=O)Nc1ccc(N2CCN(C(=O)OC(C)(C)C)CC2)cc1 [Compound 76, tert-butyl 4-(4-(4-(2-methyl-6,7-dihydropyrazolo[1,5-a]pyrimidin-4(5H)-yl)-4-oxobutanamido)phenyl)piperazine-1-carboxylate]	< 100
Cc1cc2n(n1)CCCN2C(=O)CCC(=O)Nc1ccc(-c2cccc(C(=O)N(C)C)c2)cc1 [Compound 68, N,N-dimethyl-4′-(4-(2-methyl-6,7-dihydropyrazolo[1,5-a]pyrimidin-4(5H)-yl)-4-oxobutanamido)-[1,1′-biphenyl]-3-carboxamide]	> 10000
Cc1cc2n(n1)CCCN2C(=O)CCC(=O)Nc1ccc(-c2cccc(N(C)C)c2)cc1 [Compound 72, N-(3′-(dimethylamino)-[1,1′-biphenyl]-4-yl)-4-(2-methyl-6,7-dihydropyrazolo[1,5-a]pyrimidin-4(5H)-yl)-4-oxobutanamide]	> 10000
Cc1cncc(-c2cnc(NC(=O)CCC(=O)N3CCCn4nc(C)cc43)cc2C)c1 [Compound 120, N-(4,5′-dimethyl-3,3′-bipyridin-6-yl)-4-(2-methyl-6,7-dihydropyrazolo[1,5-a]pyrimidin-4(5H)-yl)-4-oxobutanamide]	< 5000
Cc1cc2n(n1)CC(C)CN2C(=O)CCC(=O)Nc1ccc(-c2ccccn2)cn1 (stereo not shown) [Compound 171, N-([2,3′-bipyridin]-6′-yl)-4-(2,6-dimethyl-6,7-dihydropyrazolo[1,5-a]pyrimidin-4(5H)-yl)-4-oxobutanamide]	< 100
Cc1cc2n(n1)CCCN2C(=O)CCC(=O)Nc1cnc(-c2cccnc2)c(F)c1 [Compound 111, N-(3-fluoro-2,3′-bipyridin-5-yl)-4-(2-methyl-6,7-dihydropyrazolo[1,5-a]pyrimidin-4(5H)-yl)-4-oxobutanamide]	< 100
Cc1cc2n(n1)CCCN2C(=O)CCC(=O)Nc1cnc(-c2ccccc2)c(F)c1 [Compound 156, N-(5-fluoro-6-phenylpyridin-3-yl)-4-(2-methyl-6,7-dihydropyrazolo[1,5-a]pyrimidin-4(5H)-yl)-4-oxobutanamide]	< 100
Cc1cc2n(n1)CCCN2C(=O)CCC(=O)Nc1cc(-c2ccccc2Cl)no1 [Compound 6, N-(3-(2-chlorophenyl)isoxazol-5-yl)-4-(2-methyl-6,7-dihydropyrazolo[1,5-a]pyrimidin-4(5H)-yl)-4-oxobutanamide]	> 10000

Each compound was assayed on MMTV-Wnt1 tumor (assay: MMTV-Wnt1 mouse model). Conditions: treated mice, FIG. 2 and FIG. 3.
Assay type: in vivo
Experimental: 8-10 weeks old Female BALBc mice were anesthetised with 150 mg/kg Ketamine+75 mg/kg Xylazine. Under aseptic conditions, skin near the 4th mammary fat pad was incised. Mammary fat pad was tweaked with forceps and tumor fragment ˜2 mm^3 was implanted. The incision was closed using a tissue adhesive. Animals were randomised into groups of eight and treated daily with the test compounds for 14 days. Tumors were measured in two dimensions using calipers, and volume was calculated using the formula: Tumor Volume (mm^3)=[…]. Maximum tumor volume limit was 2000 mm^3.

Compound	tumor growth
Cc1cncc(-c2ccc(NC(=O)CCC(=O)N3CCCn4nc(C)cc43)cn2)c1 [Compound 110, N-(5′-methyl-2,3′-bipyridin-5-yl)-4-(2-methyl-6,7-dihydropyrazolo[1,5-a]pyrimidin-4(5H)-yl)-4-oxobutanamide]	decreased tumor growth in all the treated mice

These compounds were tested on mammalian PORCN (assay: PORCN-null HT1080 cells transfected with mammalian PORCN, WNT3A, STF reporter). Conditions: luciferase, FIG. 1.
Assay type: cell-based
Experimental: PORCN-null HT1080 cells were transfected with mammalian or Xenopus PORCN expression plasmids, along with WNT3A, STF reporter and mCherry as transfection control. 6 hours after transfection, cells were treated with the compounds or DMSO as indicated, and the following day assayed for luciferase. Xenopus PORCN was resistant to the inhibitory effects of compounds.

Compound	inhibition of the activity of mammalian porcupine
Cc1cncc(-c2ccc(NC(=O)CCC(=O)N3CCCn4nc(C)cc43)cn2)c1 [Compound 110, N-(5′-methyl-2,3′-bipyridin-5-yl)-4-(2-methyl-6,7-dihydropyrazolo[1,5-a]pyrimidin-4(5H)-yl)-4-oxobutanamide]	inhibit the activity of mammalian porcupine
